Source: patent US20240238278A1, “Pharmaceutical Composition for Preventing or Treating Fibrosis” (Daewoong Pharmaceutical Co., Ltd., priority 2021, published 2024)

Key:
[1] = tested on: animal model of pulmonary fibrosis; assay: Inflammation cell count analysis in BALF; assay type: in vivo; details: BLM mice, PO, day 21; first component 10 mg/kg, NIN 60 mg/kg, PID 200 mg/kg
Method: (§1) 70-100 uL of BLM solution (bleomycin 1-3 mg/kg) was administered to a lung of the acclimatized experimental animals using a catheter for 5 days or more. In accordance with the purpose of the test, the test drug was administered 7 days after BLM administration, and the drug was orally administered for 2 weeks until the 21st day of BLM administration.
At the sacrifice on the 21st day of administration, BALF (Bronchoalveolar lavage fluid) cells obtained through airway washing of mice were diluted with 1.05×PBS and attached to a slide, and then the slide was immersed and removed for 30 seconds in the order of 1, 2, 3 diff quick stain solution, and stained. It was counted based on 500 cells. Macrophages are the largest in size, mononuclear, and stained blue. Neutrophils and eosinophils form polynuclear cells, but eosinophils are stained red with eosin and distinguished from neutrophils. Lymphocytes have very less cytoplasm and are small in size as monocytes.

[2] = tested on: animal model of pulmonary fibrosis; assay: Measurement of total collagen content in lung (INSOLUBLE Collagen Assay); assay type: in vivo, mouse; details: BLM mice, PO, day 21, n 9; first component 10 mg/kg, NIN 60 mg/kg, PID 200 mg/kg
Method: as §1
In this experimental example, analysis was performed using INSOLUBLE Collagen Assay (Biocolor, S2000). After sacrifice on the 21st day, the cryopreserved lung tissue was pulverized by adding 100 uL of Fragmentation Reagent, and then, 100 uL of 37% HCl was added and incubated at 65° C. for 3 hours. The contents of the tube were shaken at 30 minute intervals to aid tissue disintegration. After centrifugation, the concentration was adjusted to 100 μL and collagen staining was proceeded to prepare a sample. Absorbance was measured at 560 nm.

[3] = tested on: animal model of pulmonary fibrosis; assay: Lung function evaluation (SpO2) in BLM animal model; assay type: in vivo, mouse; details: BLM mice, PO, day 21, first component 10 mg/kg, NIN 60 mg/kg, PID 200 mg/kg; for SpO2 Differance / SpO2 Rate of increase: vs vehicle
Method: as §1
This lung function evaluation is the most direct and important evaluation index that has the greatest influence on the symptoms and quality of life of patients with pulmonary fibrosis, and is an experiment that can most directly show the effect of improving lung function in an animal model of pulmonary fibrosis by measuring the oxygen concentration in the body.
On the 21st day, it was measured with a SpO2 measuring device (Berry, Veterinary Pulse Oximeter) via the abdominal side of the mouse, and the results are shown in Table 5 and FIG. 3.

[4] = Measurement of change in body weight in BLM animal model; assay type: in vivo, mouse; set-up: unit not given here; details: BLM mice, first component 10 mg/kg, NIN 60 mg/kg, PID 200 mg/kg
Method: as §1
The body weight was measured once every 0, 7, 14, 17, and 21 days for 3 weeks, and from the 14th day when the drug effect began to be noticeable after the administration, it was measured every 3 days.

DHLF cell line = assay: Non-clinical anti-fibrotic efficacy: Western blotting of TGF-β treated DHLF cell line; assay type: cell-based; details: TGF-β 10 ng/ml, 72 hours
Method: 10 mM of the first component was diluted with DMSO so as to be to 100 uM. It was diluted with DMSO so as to be 10, 3, 1 uM, and 10 mM of the second component (NIN) was diluted with DMSO to be 50 nM.
A DHLF cell line (FGM™-2 Bullet Kit™, 10% FBS), which is a lung fibrosis cell line, was prepared, and cultured in a T75 Easy Flask Filter at 37° C. and 5% CO2 using FBM medium. The cultured DHLF cell line was treated with 10 ng/mL of TGF-β and the test drug alone or in combination, cultured for 72 hours, then the media was removed, the protein was extracted, and the extracted protein was quantified using the BCA Protein Assay Kit. Based on the quantitative value of each extracted protein, 10 to 20 ug of protein was subjected to Western blotting. The protein after running was transferred to the PVDF membrane. After TBS-T washing 3 times, each PVDF membrane was treated with 1 mL of ECL solution, and then the protein expression level was measured using an AI680 imager. Each band value was calculated as a numerical value normalized compared to β-actin through ImageJ, and is shown in Tables 2 and 3 and FIGS. 1 and 2 below.

[5] = Pharmacokinetic test after single oral administration in ICR mice; assay type: in vivo; details: mouse, blood, ICR mice (male), 10 mg/kg
Method: The pharmacokinetic parameters were calculated using Excel® and WinNonlin6.1 software for the blood drug concentration according to the change over time obtained through LC-MS/MS, and changes in the blood concentration of the first component are shown in Table 11 and FIG. 9.

[6] = tested on: animal model of pulmonary fibrosis; assay: Histopathology (Ashcroft score) analysis, Fibrotic Index; assay type: in vivo, mouse; details: BLM mice, PO, day 21; first component 10 mg/kg, PID 200 mg/kg
Method: as §1
The degree of fibrosis and inflammation of the lung tissue were visually observed through a microscope, and the degree of fibrosis of lung tissue was measured with a Fibrotic Index according to normalized criteria. The higher the Fibrotic Index value, the more severe the degree and symptom of fibrosis. It is interpreted that as the value is lower, the symptom is alleviated.
On the 21st day, lung tissue was separated and stained using H&E and MT stain, and observed under a microscope at 200× magnification. The observed results were scored by Ashcroft (Hubner et al., 2008). The fibrotic index was calculated by dividing the sum of the adjusted Ashcroft field scores by the number of fields tested, and shown in Table 7 and FIG. 4.

[7] = Table 2, first component 10 ug/ml alone
[8] = Table 3, first component 5 ug/ml alone

Which results are given for `O[C@H]1CCCN[C@@H]1CCCn1cnc2c(Cl)c(Cl)ccc21` [First component]?
Eosinophil count in BALF [1]: 0; Lymphocyte count in BALF [1]: 7; Macrophage count in BALF [1]: 60; Neutrophil count in BALF [1]: 17; total cell in BALF [1]: 84 10^4; total collagen content in lung (hydroxyproline value, ratio compared with normal group) [2]: 228; SpO2 Average value [3]: 79.1; SpO2 Differance [3]: 3.1; SpO2 Rate of increase [3]: 4%; change in body weight ([4]; Day 0): 0.0; change in body weight ([4]; Day 7): −10.1; change in body weight ([4]; Day 14): −22.7; change in body weight ([4]; Day 17): −22.2; change in body weight ([4]; Day 21): −20.5; COL1A1 Relative value (based on control) (DHLF cell line; [7]): 3.26; SMA-α Relative value (based on control) (DHLF cell line; [7]): 1.66; COL1A1 Relative value (based on control) (DHLF cell line; [8]): 3.84; SMA-α Relative value (based on control) (DHLF cell line; [8]): 3.53; AUC(0-inf) [5]: 1190 ng·h/mL; AUC(0-t) [5]: 1070 ± 210 ng·h/mL; Cmax [5]: 263 ± 32 ng/mL; Tmax [5]: 2.67 ± 1.15 h; half-life [5]: 2.5 ± 2.48 h; Fibrotic Index (±SEM) [6]: 4.6 (±0.6)

For `Cc1ccc(=O)n(-c2ccccc2)c1` [Second component (PID), Pirfenidone], which “Eosinophil count in BALF” value [1] is on record?
The value was 0.

What about the “Lymphocyte count in BALF” value [1] of the same molecule?
The value was 6.

And the “Macrophage count in BALF” value [1]?
The value was 55.

And the “Neutrophil count in BALF” value [1]?
Its value is 12.

What about the “total cell in BALF” value [1] of the same molecule?
Its value is 74 10^4.

And the “total collagen content in lung (hydroxyproline value, ratio compared with normal group)” value [2]?
The value was 156.

And the “SpO2 Average value” [3]?
Its value is 81.7.

What about the “SpO2 Differance” value [3] of the same molecule?
Its value is 5.7.

What about the “SpO2 Rate of increase” value [3] of the same molecule?
Its value is 7%.

What about the “SpO2 Rate of increase” value ([3]; listed as PID) of the same molecule?
The value was 7%.

What about the “change in body weight” value ([4]; Day 0) of the same molecule?
Its value is 0.0.

What about the “change in body weight” value ([4]; Day 7) of the same molecule?
The value was −10.2.

And the “change in body weight” value ([4]; Day 14)?
Its value is −22.7.

What about the “change in body weight” value ([4]; Day 17) of the same molecule?
Its value is −18.1.

What about the “change in body weight” value ([4]; Day 21) of the same molecule?
Its value is −16.5.

What about the “Fibrotic Index (±SEM)” value [6] of the same molecule?
Its value is 3.7 (±0.7).
